Where no end group is shown, it is not given here.
Columns and labels:
myosin light chain (MLC) = test: MLC phosphorylation, Western blot, BAEC; format: cell-based, bovine; details: 25 ng/ml VEGF, 20 μg/ml peptide or 5 μM ML7
Protocol: FIG. 6. Regulation of myosin light chain (MLC) phosphorylation by PAK. FIG. 6A: confluent BAEC on FN were treated with vehicle only (+vehicle), 20 μg/ml control peptide (+con pep), 20 μg/ml PAK-blocking peptide (+PAK pep; SEQ ID NO:1), 5 μM ML7 (+ML7) with (+) or without (−) 25 ng/ml VEGF. […] FIG. 6B: as described in A, BAEC were pretreated with 20 μg/ml control peptide (+con pep) or PAK-blocking peptide (+PAK pep) followed by 25 ng/ml of VEGF, 25 ng/ml bFGF, 10 μM histamine, 0.1 units/ml thrombin, or 10 ng/ml of TNF. Upper row, anti-phospho-MLC (pMLC); middle row, total MLC (total MLC); and lower row, pMLC plus an antigenic phospho-peptide (pMLC+AP). […]
Western Blots—Confluent cells were starved in 0.5% serum for 18 h, treated as described in the legends to FIGS. 1, 2, 3 and 6, washed with cold PBS, and then harvested by scraping in cold lysis buffer (25 mM Tris, pH 7.4, 1% Nonidet P-40, 0.5% sodium deoxycholate, 137 mM NaCl, 50 μM EDTA, 10 μg/ml each aprotinin and leupeptin, 1 mM phenylmethylsulfonyl fluoride). […] Protein was transferred to polyvinylidene difluoride membrane, and blots were probed with primary antibodies (described under “Fluorescence Imaging”) followed by horseradish peroxidase-conjugated secondary antibodies (Jackson ImmunoResearch, Inc.). […]

murine lungs = test: Histology of murine lungs treated with peptide and LPS; format: in vivo; details: mice, peptide 1 mg ip, no LPS
Description: FIG. 9. Histology of murine lungs treated with PAK blocking peptide and LPS. FIGS. 9A (200× magnification), 9B (400×), and 9C (200×) represent photomicrographic images. […] There is some phosphoPAK staining (visible as brown stain in the original color micrographs) present in epithelial structures, alveolar walls (composed of mixed cell types), and vessel endothelium and smooth muscle. Arrow indicates a normal small vessel with red blood cells and few circulating leukocytes. Tissues were counterstained with hematoxylin.
FIG. 10. Histology of murine lungs treated with PAK blocking peptide and LPS. FIGS. 10A (200× magnification), 10B (400×), and 10C (200×) represent photomicrographic images. […] Vessel sections (arrow) indicate that LPS highly increases the amount of pPAK in vessel walls, and also produces inflammatory enlargement of vessels, with an increase in numbers of recruited neutrophils and monocytes admixed with red blood cells and intravasating through vessel walls, an indicator of acute inflammation. Some alveolar tissues are completely eroded and filled with exudate and dead cells (FIG. 10C). Tissues were counterstained with hematoxylin.
FIG. 11. Histology of murine lungs treated with PAK blocking peptide and LPS. FIGS. 11A (200× magnification), 11B (400×), and 11C (200×) represent photomicrographic images. […]

BAEC = test: Paracellular pore formation assay, BAEC on filters; format: cell-based, bovine; details: with or without VEGF
Protocol: FIG. 5. Effects of PAK on remodeling of cell-cell junctions and the actin cytoskeleton. FIG. 5A: confluent BAECs on coverslips were serum-starved for 18 hours and then treated with 25 ng/ml VEGF. The cells were fixed and stained for phospho-PAK and F-actin. Images show phospho-PAK (pPAK) and F-actin (F-actin) at the indicated times after the addition of VEGF. White arrows indicate pores between cells. Scale bar=50μ. FIG. 5B: phospho-PAK (pPAK) and F-actin (F-actin) are shown in cells prepared and treated as described in FIG. 5A after 60 minutes with VEGF with peptide additions. […]
Monolayer Permeability and Paracellular Pore Formation Assays—Cells were plated onto FN-coated polycarbonate membranes (3.0-μ pore size; Transwell, Costar) at 6×10^4 cells/cm^2 and cultured for 4 days with medium changes every other day until confluence was reached. […] Medium was harvested from the lower chamber, and HRP activity was determined calorimetrically by absorbance at 490 nm to detect the […] reaction product after 15 minutes of incubation with 0.5 mM guaiacol, 50 mM Na2HPO4, and 0.6 mM H2O2. […] To quantify paracellular pore formation and correlate to permeability, the fixed cell monolayer-covered filters were stained for 2 hours with Coomassie Blue (0.25% in 1:1:2 of methanol:glacial acetic acid:double distilled (dd)H2O), destained in the same solution minus dye, rinsed in ddH2O, and air-dried. […]

## O=S(=O)(c1cccc2c(I)cccc12)N1CCCNCC1 [ML7]
Myosin light chain (MLC)
  MLC phosphorylation induced by VEGF: inhibited

## YGRKKRRQRRRGKPPAPPMRNTSTM [PAK-blocking peptide]
Murine lungs
  lung histology, peptide-only: equivalent to untreated mice

B1: PAK AID: PAK autoinhibitory domain, residues 83-149, cloned into the pDsRed1-N1 vector and expressed by transient transfection (protein, UniProt Q13153 83-149, looked up, fragment)
chain: HTIHVGFDAVTGEFTGMPEQWARLLQTSNITKSEQKKNPQAVLDVLEFYNSKKTSNSQKYMSFTDKS
modifications: DsRed fusion
BAEC
  formation of pores between adjacent cells: inhibited pore formation
